Data as given in patent US20250249056A1, “CANCER THERAPIES COMPRISING A NUCLEAR EXPORT INHIBITOR AND AN ONCOLYTIC VIRUS” (priority 2022, published 2025).

System: Colo205 cells
Type: cell-based, human
Conditions: selinexor-treated cytoplasm vs control cytoplasm

Structure (SMILES): O=C(/C=C\n1cnc(-c2cc(C(F)(F)F)cc(C(F)(F)F)c2)n1)NNc1cnccn1 [selinexor]
- Differential protein expression, PLEKHS1 (Q5SXH7): 2.039
- Differential protein expression, RSBN1 (Q5VWQ0): 100
- Differential protein expression, ZMYM4 (Q5VZL5): 0.01
- Differential protein expression, RPL7L1 (Q6DKI1): 0.463
- Differential protein expression, DMKN (Q6E0U4): 0.02
- Differential protein expression, NCAPH2 (Q6IBW4): 0.01
- Differential protein expression, LIN54 (Q6MZP7): 0.426
- Differential protein expression, POMZP3 (Q6PJE2): 100
- Differential protein expression, CCDC137 (Q6PK04): 0.426
- Differential protein expression, MPRIP (Q6WCQ1): 0.01
- Differential protein expression, NCCRP1 (Q6ZVX7): 2.342
- Differential protein expression, LPCAT2 (Q7L5N7): 2.194
- Differential protein expression, CXXC5 (Q7LFL8): 0.01
- Differential protein expression, KRT74 (Q7RTS7): 4.935
- Differential protein expression, KRT28 (Q7Z3Y7): 2.439
- Differential protein expression, KRT27 (Q7Z3Y8): 2.607
- Differential protein expression, KRT25 (Q7Z3Z0): 2.607
- Differential protein expression, MYH14 (Q7Z406): 2.01
- Differential protein expression, KRT78 (Q8N1N4): 2.84
- Differential protein expression, PIAS4 (Q8N2W9): 0.01
- Differential protein expression, GPATCH11 (Q8N954): 100
- Differential protein expression, KDM1B (Q8NB78): 0.01
- Differential protein expression, RNF169 (Q8NCN4): 100
- Differential protein expression, PHC3 (Q8NDX5): 100
- Differential protein expression, PPHLN1 (Q8NEY8): 0.01
- Differential protein expression, GDAP1 (Q8TB36): 2.559
- Differential protein expression, CIP2A (Q8TCG1): 0.239
- Differential protein expression, CHD6 (Q8TD26): 0.01
- Differential protein expression, GPT2 (Q8TD30): 0.411
- Differential protein expression, RB1CC1 (Q8TDY2): 100
- Differential protein expression, ZNF384 (Q8TF68): 0.01
- Differential protein expression, U2AF1L4 (Q8WU68): 2.738
- Differential protein expression, TSEN15 (Q8WW01): 0.497
- Differential protein expression, NIPSNAP1 (Q9BPW8): 0.499
- Differential protein expression, SH2D3A (Q9BRG2): 100
- Differential protein expression, WDR83 (Q9BRX9): 100
- Differential protein expression, TPPP3 (Q9BW30): 2.408
- Differential protein expression, LSM14B (Q9BX40): 0.437
- Differential protein expression, TTYH3 (Q9C0H2): 0.47
- Differential protein expression, BRD8 (Q9H0E9): 0.01
- Differential protein expression, WWP1 (Q9H0M0): 2.549
- Differential protein expression, TASP1 (Q9H6P5): 100
- Differential protein expression, RPF2 (Q9H7B2): 2.588
- Differential protein expression, CAAP1 (Q9H8G2): 100
- Differential protein expression, BRD9 (Q9H8M2): 0.01
- Differential protein expression, ING2 (Q9H160): 100
- Differential protein expression, SDCBP2 (Q9H190): 2.885
- Differential protein expression, EPB41L4B (Q9H329): 2.055
- Differential protein expression, FOXP1 (Q9H334): 0.01
- Differential protein expression, SP110 (Q9HB58): 0.01
- Differential protein expression, PATZ1 (Q9HBE1): 100
- Differential protein expression, SPC25 (Q9HBM1): 0.479
- Differential protein expression, AGO4 (Q9HCK5): 2.165
- Differential protein expression, TCF7L1 (Q9HCS4): 5.627
- Differential protein expression, MLXIPL (Q9NP71): 0.379
- Differential protein expression, TCF7L2 (Q9NQB0): 0.01
- Differential protein expression, STRN4 (Q9NRL3): 100
- Differential protein expression, RAD18 (Q9NS91): 100
- Differential protein expression, DIAPH3 (Q9NSV4): 0.233
- Differential protein expression, MBNL3 (Q9NUK0): 2.509
- Differential protein expression, MRGBP (Q9NV56): 100
- Differential protein expression, EXD2 (Q9NVH0): 2.016
- Differential protein expression, ASF1B (Q9NVP2): 0.458
- Differential protein expression, SDHAF2 (Q9NX18): 0.346
- Differential protein expression, EHF (Q9NZC4): 0.01
- Differential protein expression, MACROH2A2 (Q9P0M6): 100
- Differential protein expression, SENP1 (Q9POU3): 0.01
- Differential protein expression, m101L (Q9Q8J9): 2.679
- Differential protein expression, m097R (Q9Q8K3): 100
- Differential protein expression, m094R (Q9Q8K6): 0.01
- Differential protein expression, m089L (Q9Q8L1): 0.01
- Differential protein expression, m048L (Q9Q8P8): 2.287
- Differential protein expression, m043L (Q9Q8Q3): 0.01
- Differential protein expression, m042L (Q9Q8Q4): 0.01
- Differential protein expression, m032R (Q9Q8R4): 100
- Differential protein expression, DNAJB4 (Q9UDY4): 3.313
- Differential protein expression, DAXX (Q9UER7): 100
- Differential protein expression, MLX (Q9UH92): 0.453
- Differential protein expression, ADGRE2 (Q9UHX3): 0.491
- Differential protein expression, RASAL2 (Q9UJF2): 0.01
- Differential protein expression, LEF1 (Q9UJU2): 5.627
- Differential protein expression, ANAPC2 (Q9UJX6): 0.336
- Differential protein expression, GGA2 (Q9UJY4): 0.442
- Differential protein expression, CCNL1 (Q9UK58): 3.386
- Differential protein expression, RALY (Q9UKM9): 2.03
- Differential protein expression, YEATS2 (Q9ULM3): 100
- Differential protein expression, NOB1 (Q9ULX3): 0.407
- Differential protein expression, FZR1 (Q9UM11): 4.964
- Differential protein expression, NOL7 (Q9UMY1): 0.431
- Differential protein expression, LIMCH1 (Q9UPQ0): 0.01
- Differential protein expression, AGAP1 (Q9UPQ3): 2.271
- Differential protein expression, DNM3 (Q9UQ16): 100
- Differential protein expression, JRKL (Q9Y4A0): 0.474
- Differential protein expression, DCAF1 (Q9Y4B6): 0.482
- Differential protein expression, UTP18 (Q9Y5J1): 0.493
- Differential protein expression, ST14 (Q9Y5Y6): 2.934
- Differential protein expression, RBMX2 (Q9Y388): 100
- Differential protein expression, PSAT1 (Q9Y617): 0.469
- Differential protein expression, SLC12A7 (Q9Y666): 0.497
- Differential protein expression, mt6 (Q9YQ03): 0.01
- Differential protein expression, GLE1 (Q53GS7): 0.329
- Differential protein expression, INO80D (Q53TQ3): 100
- Differential protein expression, NAIF1 (Q69Y17): 0.374
- Differential protein expression, H3C13; H3C14; H3C15 (Q71DI3): 3.19
- Differential protein expression, TADA2B (Q86TJ2): 0.246
- Differential protein expression, RPS19BP1 (Q86WX3): 0.426
- Differential protein expression, KRT73 (Q86Y46): 4.935
- Differential protein expression, PBXIP1 (Q96AQ6): 2.168
- Differential protein expression, INTS12 (Q96CB8): 100
- Differential protein expression, LRRC58 (Q96CX6): 3.753
- Differential protein expression, RBMXL1 (Q96E39): 100
- Differential protein expression, MCRS1 (Q96EZ8): 0.01
- Differential protein expression, PERP (Q96FX8): 2.002
- Differential protein expression, LTV1 (Q96GA3): 0.288
- Differential protein expression, SMARCD1 (Q96GM5): 0.376
- Differential protein expression, ZNF668 (Q96K58): 0.01
- Differential protein expression, RNPC3 (Q96LT9): 100
- Differential protein expression, PWWP2A (Q96N64): 0.01
- Differential protein expression, SERPINB12 (Q96P63): 3.145
- Differential protein expression, SLC38A2 (Q96QD8): 0.262
- Differential protein expression, PHF12 (Q96QT6): 100
- Differential protein expression, SMC6 (Q96SB8): 0.01
- Differential protein expression, CDK3 (Q00526): 0.01
- Differential protein expression, ARL11 (Q969Q4): 2.014
- Differential protein expression, U2AF1 (Q01081): 2.205
- Differential protein expression, KRT76 (Q01546): 2.236
- Differential protein expression, SP2 (Q02086): 0.01
- Differential protein expression, PCDH1 (Q08174): 3.649
- Differential protein expression, DSC1 (Q08554): 2.044
- Differential protein expression, CDH17 (Q12864): 5.81
- Differential protein expression, PRDM2 (Q13029): 0.499
- Differential protein expression, KRR1 (Q13601): 2.698
- Differential protein expression, AAMP (Q13685): 0.385
- Differential protein expression, RUNX2 (Q13950): 0.192
- Differential protein expression, CDK13 (Q14004): 2.192
- Differential protein expression, TFDP2 (Q14188): 0.48
